Reference: patent US7683034B2, “Use of enzyme inhibitors of aminopeptidase N and/or dipeptidylpeptidase IV” (IMTM GmbH, priority 2002, dated 2010)

Test system: immortalized human sebaceous cell line SZ95
Assay: Inhibition of DNA synthesis (3[H]-thymidine incorporation) of SZ95 sebaceous cells
Assay type: cell-based
Conditions: 48 h incubation with inhibitor, then 6 h 3[H]-methyl-thymidine incorporation; dose-dependent (FIG. 3)
Method: SZ95 cells were 48 h incubated with the above-mentioned inhibitors and subsequently the DNA synthesis was determined by the measurement of the ^ 3[H]-Thymidine incorporation as described in Reinhold et al. (Reinhold, D. et al.: Inhibitors of dipeptidyl peptidase IV induce secretion of transforming growth factor β1 in PWM-stimulated PBMNC and T-cells; Immunology, 1997, 91; 354-360).
The cells were 48 h incubated with inhibitors in the above-mentioned concentrations. Subsequently ^3[H]-Methyl-thymidin was added to the culture medium. After 6 further hours the amount of ^3[H]-Thymidine incorporated in the DNA was measured.

Row | SMILES | DNA synthesis of the immortalized human sebaceous cell line SZ95
1 | N[C@@H](CCCCNC(=O)OCc1ccc([N+](=O)[O-])cc1)C(=O)N1CCSC1 [Lys[Z(NO2)]-thiazolidide] | inhibited
2 | CCCCC[C@H](CC(=O)NO)C(=O)N[C@H](C(=O)N1CCC[C@H]1CO)C(C)C [actinonin] | inhibited
